Reference: article PMC3229521, “Engineering Genetically Encoded Nanosensors for Real-Time In Vivo Measurements of Citrate Concentrations” (PLoS ONE, 2011)
Structures can show the parent of a compound that is named as a salt.

What was measured:
Assay in all cases: Citrate titration of purified FRET nanosensors in a fluorescence plate reader (excitation 433 nm, Venus/CFP emission ratio 530/488 nm) in 20 mM MOPS, 20 mM NaCl, pH 7, fitted to a single site binding curve.
Settings in all cases: n = 2
[1] = target: T1, CIT8μ (CFP-CitA6-130-Venus) (Klebsiella pneumoniae, UniProt P52687)
T1 construct: gene citA; CitA residues 6-130 inserted between CFP and Venus (pGW1, pRSET-based), His-tag purified
T1 sequence (P52687 50-174): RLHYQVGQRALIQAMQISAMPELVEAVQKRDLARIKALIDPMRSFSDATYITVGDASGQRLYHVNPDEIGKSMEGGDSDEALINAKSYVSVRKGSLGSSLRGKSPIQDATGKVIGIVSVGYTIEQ
Method: (§1) Next, we thoroughly tested the newly created nanosensor CFP-CitA6-130-Venus in vitro. We determined the binding properties by mixing the sensor with 0.5 to 1000 µM citrate. The obtained ratios were fitted to a single site binding curve as described in the methods section. We determined the KD, the ligand concentration at half-maximal saturation, to be 8 µM, which is very close to the value determined by Gerharz et al (2003) using isothermal titration calorimetry to characterize the purified protein [25]. The reproducibility between different batches of proteins extraction was excellent, with ratios in general not differing by more than 5%. A crucial feature for in vivo application is specificity. We thus exposed the nanosensor to a variety of structurally related organic acids including isocitrate, aconitate, α-ketoglutarate, succinate and pyruvate in presence or absence of citrate. […] In the case of isocitrate, we observed an effect only at concentrations above 1 mM (Figure 2 B) in absence of citrate, which by far exceeds the concentration typically observed by metabolomics in microbes. Also, the apparent affinity for citrate was not modified in the presence of isocitrate or aconitate (data not shown), which excludes competitive binding. After confirming the high specificity of the sensor we tested pH stability, which is crucial when aiming to study certain intracellular compartments (Figure S2 A). […] Therefore, the new nanosensor should be functional in most compartments, however it is not suitable for highly acidic compartments such as endosomes or vacuoles. We also tested the effect of high salt concentrations as typically observed in cells. […] Thus, as has been previously observed when comparing nanosensors in vitro and in vivo [13], [23], we can expect the observed fluorescence intensity ratio in vivo to be lower than under assay conditions. The KD and the dynamic range, however, were not altered, and thus relative changes in citrate concentrations can still be monitored in vivo.
(§2) The natural receptor CitA is highly sensitive and detects low concentrations of citrate in the periplasmic environment and thus has a very high affinity for its substrate. For application as an intracellular sensor a saturation concentration of approximately 100 µM appeared too low given the estimates of intracellular concentrations of citrate by metabolomics approaches in the mid micromolar to low millimolar range [3]. We therefore engineered the affinity of the nanosensor for in vivo applications. Gerharz et al systematically investigated residues of the CitA sensor domain involved in citrate binding. Replacement of positively charged amino acids with alanine led to decreased affinity. We chose five of the reported point mutations and introduced them into the sensor CitA6-130. We determined binding constants and total FRET ratios from two independent extractions (Table 1). The binding constants were qualitatively in good agreement with the observations of Gerharz et al., though in some cases we observed a much larger decrease of affinity. This might be due to the different measurement techniques, a different behaviour of the truncated and sandwiched protein compared to the isolated full-length protein, or to the minor differences we found in the sequence compared to the published Klebsiella CitA gene (sequence of the final sensor can be found in Document S1). […] Decreasing the affinity for the designated substrate bears the risk of also reducing specificity. We therefore tested all mutated sensors for binding of isocitrate and aconitate, the most closely related compounds. […] Also, pH and salt sensitivity were similar to the original sensor (data not shown).
(§3) All in vitro assays were performed in a TECAN Infinite 200 plate reader (TECAN, Austria) in 96 well format (modified from). Proteins, reagents and ligands were dissolved in assay buffer (20 mM Mops, 20 mM NaCl, pH 7 unless specified otherwise). […]

[2] = target: T2, CIT1.8m (Klebsiella pneumoniae, UniProt P52687, R150A)
T2 construct: gene citA; CitA residues 6-130 inserted between CFP and Venus (pGW1, pRSET-based), His-tag purified
T2 sequence (P52687 49-173 R150A): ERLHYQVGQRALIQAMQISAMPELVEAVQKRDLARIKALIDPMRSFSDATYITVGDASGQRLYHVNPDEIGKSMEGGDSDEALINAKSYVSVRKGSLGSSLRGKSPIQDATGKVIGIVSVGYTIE
Method: as §1, §2, §3

[3] = target: T3, CIT50μ (Klebsiella pneumoniae, UniProt P52687, R92A)
T3 construct: gene citA; CitA residues 6-130 inserted between CFP and Venus (pGW1, pRSET-based), His-tag purified
T3 sequence (P52687 49-173 R92A): T2 sequence (P52687 49-173 R150A)
Method: as §1, §2, §3

[4] = target: T4, CIT96μ (Klebsiella pneumoniae, UniProt P52687, K120A)
T4 construct: gene citA; CitA residues 6-130 inserted between CFP and Venus (pGW1, pRSET-based), His-tag purified
T4 sequence (P52687 49-173 K120A): T2 sequence (P52687 49-173 R150A)
Method: as §1, §2, §3

[5] = target: T5, CIT32μ (Klebsiella pneumoniae, UniProt P52687, K135A)
T5 construct: gene citA; CitA residues 6-130 inserted between CFP and Venus (pGW1, pRSET-based), His-tag purified
T5 sequence (P52687 49-173 K135A): T2 sequence (P52687 49-173 R150A)
Method: as §1, §2, §3

[6] = target: T6, CIT0.5m (Klebsiella pneumoniae, UniProt P52687, K120A/R92A)
T6 construct: gene citA; CitA residues 6-130 inserted between CFP and Venus (pGW1, pRSET-based), His-tag purified
T6 sequence (P52687 49-173 R92A/K120A): T2 sequence (P52687 49-173 R150A)
Method: as §1, §2, §3

Work on `O=C(O)CC(O)(CC(=O)O)C(=O)O` [citrate, citrate (citric acid)] yielded a Kd [1] of 8 µM, a Kd [2] of 1760 µM and a Kd [3] of 50 µM. For the same compound, the Kd [4] was 96 µM, the Kd [5] was 32 µM and the Kd [6] was 470 µM.
